# According to patent US8247211B2, “Glycopeptide antibiotics” (American Cyanamid Company, priority 2001, dated 2012):
# What was measured:
# Assay in all cases: In vitro antibacterial evaluation: minimum inhibitory concentration (MIC), broth dilution method
# Format in all cases: cell-based
# Escherichia coli = conditions: 18 hours at 35° C.
# Outline: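 Susceptibility determined by NCCLS-recommended broth dilution (M7-A2), Muller-Hinton II […]. Concentration span 64-0.06 μg/mL, inoculum 5×10^5 CFU/mL. Isolates include strains resistant to methicillin, penicillin and/or vancomycin.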
# Staphylococcus sp. = conditions: for MIC Staphylococcus aureus (ATCC 29213): strain ATCC 29213; for MIC Staphylococcus aureus (GC 1131): strain GC 1131; for MIC Staphylococcus aureus (GC 3051): strain GC 3051; for MIC Staphylococcus aureus (GC 3053): strain GC 3053; for MIC Staphylococcus aureus (GC 4541): strain GC 4541; for MIC Staphylococcus aureus (GC 4542): strain GC 4542; for MIC Staphylococcus aureus-SMITH (GC 4543): strain GC 4543; for MIC Staphylococcus aureus (GC 4544): strain GC 4544; for MIC Staphylococcus aureus (GC 4545): strain GC 4545; for MIC Staphylococcus haemolyticus (GC 4546): strain GC 4546; for MIC Coagulase Negative Staphylococcus (GC 4547): strain GC 4547; for MIC Coagulase Negative Staphylococcus (GC 4548): strain GC 4548; for MIC Coagulase Negative Staphylococcus (GC 4549): strain GC 4549; for MIC Coagulase Negative Staphylococcus (GC 4551): strain GC 4551
# Outline: (§1)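 Test strains, among them recent clinical isolates carrying methicillin, penicillin and/or vancomycin resistance, were inoculated at 5×10^5 CFU/mL. A broth dilution series spanning 64-0.06 μg/mL in Muller-Hinton II […] (NCCLS M7-A2) defined the MIC as the lowest growth-inhibiting concentration.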
# Streptococcus sp. = conditions: 18 hours at 35° C.
# Outline: as §1
# Enterococcus sp. = conditions: 18 hours at 35° C.
# Outline: as §1
# [1] = Streptococcus agalactiae (GC 4564)
# [2] = Streptococcus pneumoniae (ATCC 6301)
# [3] = Streptococcus pneumoniae (GC 1894)
# [4] = Streptococcus pneumoniae (GC 4565)
# [5] = Streptococcus pyogenes (GC 4563)
# [6] = broth dilution, inoculum 5×10^5 CFU/mL
# [7] = Enterococcus faecalis (ATCC 29212)
# [8] = Enterococcus faecalis (GC 2242)
# [9] = Enterococcus faecalis (GC 2691)
# [10] = Enterococcus faecalis (GC 3059)
# [11] = Enterococcus faecalis (GC 4552)
# [12] = Enterococcus faecalis (GC 4553)
# [13] = Enterococcus faecalis (GC 4554)
# [14] = Enterococcus faecalis (GC 6189)
compound,measurement,setting,value
"CC(C1CCCCC1)C1NC(=O)CNC(=O)C(CO)NC(=O)C(C(O)C2CNC(=N)N2C2OC(CO)C(O)C(O)C2O)NC(=O)C(C(O)C2CNC(=N)N2)NC(=O)C(Cc2ccc(OC3OC(CO)C(OC4OC5COC(c6ccccc6)OC5C(O)C4O)C(O)C3O)cc2)NC1=O (stereo not shown) [Example 201, Cyclo[3-cyclohexyl-2-aminobutanoyl-O-[4-O-[4,6-O-benzylidenehexonyranosyl]hexopyranosyl]tyrosyl-3-(2-iminoimidazolidin-4-yl)seryl-3-(3-hexopyranosyl-2-iminoimidazolidin-4-yl)serylserylglycyl]]",MIC Escherichia coli (ATCC 25922),Escherichia coli,16 µg/mL
same,MIC Escherichia coli (GC 4559),Escherichia coli,16 µg/mL
same,MIC Escherichia coli (GC 4560),Escherichia coli,0.25 µg/mL
same,MIC Staphylococcus aureus (ATCC 29213),Staphylococcus sp.,0.25 µg/mL
same,MIC Staphylococcus aureus (GC 1131),Staphylococcus sp.,0.25 µg/mL
same,MIC Staphylococcus aureus (GC 3051),Staphylococcus sp.,0.5 µg/mL
same,MIC Staphylococcus aureus (GC 3053),Staphylococcus sp.,0.5 µg/mL
same,MIC Staphylococcus aureus (GC 4541),Staphylococcus sp.,0.5 µg/mL
same,MIC Staphylococcus aureus (GC 4542),Staphylococcus sp.,0.25 µg/mL
same,MIC Staphylococcus aureus-SMITH (GC 4543),Staphylococcus sp.,0.5 µg/mL
same,MIC Staphylococcus aureus (GC 4544),Staphylococcus sp.,0.25 µg/mL
same,MIC Staphylococcus aureus (GC 4545),Staphylococcus sp.,0.25 µg/mL
same,MIC Staphylococcus haemolyticus (GC 4546),Staphylococcus sp.,0.25 µg/mL
same,MIC Coagulase Negative Staphylococcus (GC 4547),Staphylococcus sp.,0.25 µg/mL
same,MIC Coagulase Negative Staphylococcus (GC 4548),Staphylococcus sp.,0.25 µg/mL
same,MIC Coagulase Negative Staphylococcus (GC 4549),Staphylococcus sp.,0.25 µg/mL
same,MIC Coagulase Negative Staphylococcus (GC 4551),Staphylococcus sp.,0.25 µg/mL
same,MIC Streptococcus agalactiae (GC 4564),Streptococcus sp.; [1],<0.12 µg/mL
same,MIC Streptococcus pneumoniae (ATCC 6301),Streptococcus sp.; [2],<0.12 µg/mL
same,MIC Streptococcus pneumoniae (GC 1894),Streptococcus sp.; [3],<0.12 µg/mL
same,MIC Streptococcus pneumoniae (GC 4565),Streptococcus sp.; [4],<0.12 µg/mL
same,MIC Streptococcus pyogenes (GC 4563),Streptococcus sp.; [5],<0.12 µg/mL
same,MIC Streptococcus agalactiae (GC 4564),Streptococcus sp.; [6],<0.12 µg/mL
same,MIC Streptococcus pneumoniae (ATCC 6301),Streptococcus sp.; [6],<0.12 µg/mL
same,MIC Streptococcus pneumoniae (GC 1894),Streptococcus sp.; [6],<0.12 µg/mL
same,MIC Streptococcus pneumoniae (GC 4565),Streptococcus sp.; [6],<0.12 µg/mL
same,MIC Streptococcus pyogenes (GC 4563),Streptococcus sp.; [6],<0.12 µg/mL
same,MIC Enterococcus avium (GC 4558),Enterococcus sp.; Enterococcus avium (GC 4558),1 µg/mL
same,MIC Enterococcus faecalis (ATCC 29212),Enterococcus sp.; [7],1 µg/mL
same,MIC Enterococcus faecalis (GC 2242),Enterococcus sp.; [8],1 µg/mL
same,MIC Enterococcus faecalis (GC 2691),Enterococcus sp.; [9],1 µg/mL
same,MIC Enterococcus faecalis (GC 3059),Enterococcus sp.; [10],1 µg/mL
same,MIC Enterococcus faecalis (GC 4552),Enterococcus sp.; [11],1 µg/mL
same,MIC Enterococcus faecalis (GC 4553),Enterococcus sp.; [12],1 µg/mL
same,MIC Enterococcus faecalis (GC 4554),Enterococcus sp.; [13],1 µg/mL
same,MIC Enterococcus faecalis (GC 6189),Enterococcus sp.; [14],1 µg/mL
same,MIC Enterococcus faecium (GC 2243),Enterococcus sp.; Enterococcus faecium (GC 2243),1 µg/mL
same,MIC Enterococcus faecium (GC 4556),Enterococcus sp.; Enterococcus faecium (GC 4556),1 µg/mL
same,MIC Enterococcus faecium (GC 4557),Enterococcus sp.; Enterococcus faecium (GC 4557),0.5 µg/mL
same,MIC Enterococcus avium (GC 4558),Enterococcus sp.; [6],1 µg/mL
same,MIC Enterococcus faecalis (ATCC 29212),Enterococcus sp.; [6],1 µg/mL
same,MIC Enterococcus faecalis (GC 2242),Enterococcus sp.; [6],1 µg/mL
same,MIC Enterococcus faecalis (GC 2691),Enterococcus sp.; [6],1 µg/mL
same,MIC Enterococcus faecalis (GC 3059),Enterococcus sp.; [6],1 µg/mL
same,MIC Enterococcus faecalis (GC 4552),Enterococcus sp.; [6],1 µg/mL
same,MIC Enterococcus faecalis (GC 4553),Enterococcus sp.; [6],1 µg/mL
same,MIC Enterococcus faecalis (GC 4554),Enterococcus sp.; [6],1 µg/mL
same,MIC Enterococcus faecalis (GC 6189),Enterococcus sp.; [6],1 µg/mL
same,MIC Enterococcus faecium (GC 2243),Enterococcus sp.; [6],1 µg/mL
same,MIC Enterococcus faecium (GC 4556),Enterococcus sp.; [6],1 µg/mL
same,MIC Enterococcus faecium (GC 4557),Enterococcus sp.; [6],0.5 µg/mL
"CC(c1ccccc1)C1NC(=O)CNC(=O)C(CO)NC(=O)C(C(O)C2CNC(=N)N2C2OC(CO)C(O)C(O)C2O)NC(=O)C(C(O)C2CNC(=N)N2)NC(=O)C(Cc2ccc(OC3OC(CO)C(OC4OC5COC6(CCCCC6)OC5C(O)C4O)C(O)C3O)cc2)NC1=O (stereo not drawn) [Example 203, Cyclo[glycyl-β-methylphenylalanyl-O-[4-O-(4,6-O-cyclohexylidene-4-O-hexopyranosyl)hexopyranosyl]tyrosyl-3-(2-iminoimidazolidin-4-yl)seryl-3-(3-hexopyranosyl-2-iminoimidazolidin-4-yl)serylseryl]]",MIC Escherichia coli (ATCC 25922),Escherichia coli,64 µg/mL
same,MIC Escherichia coli (GC 4559),Escherichia coli,32 µg/mL
same,MIC Escherichia coli (GC 4560),Escherichia coli,2 µg/mL
same,MIC Staphylococcus aureus (ATCC 29213),Staphylococcus sp.,1 µg/mL
same,MIC Staphylococcus aureus (GC 1131),Staphylococcus sp.,2 µg/mL
same,MIC Staphylococcus aureus (GC 3051),Staphylococcus sp.,2 µg/mL
same,MIC Staphylococcus aureus (GC 3053),Staphylococcus sp.,4 µg/mL
same,MIC Staphylococcus aureus (GC 4541),Staphylococcus sp.,1 µg/mL
same,MIC Staphylococcus aureus (GC 4542),Staphylococcus sp.,1 µg/mL
same,MIC Staphylococcus aureus-SMITH (GC 4543),Staphylococcus sp.,2 µg/mL
same,MIC Staphylococcus aureus (GC 4544),Staphylococcus sp.,2 µg/mL
same,MIC Staphylococcus aureus (GC 4545),Staphylococcus sp.,1 µg/mL
same,MIC Staphylococcus haemolyticus (GC 4546),Staphylococcus sp.,1 µg/mL
same,MIC Coagulase Negative Staphylococcus (GC 4547),Staphylococcus sp.,2 µg/mL
same,MIC Coagulase Negative Staphylococcus (GC 4548),Staphylococcus sp.,1 µg/mL
same,MIC Coagulase Negative Staphylococcus (GC 4549),Staphylococcus sp.,1 µg/mL
same,MIC Coagulase Negative Staphylococcus (GC 4551),Staphylococcus sp.,2 µg/mL
same,MIC Coagulase Negative Staphylococcus (GC 6257),Staphylococcus sp.; strain GC 6257,1 µg/mL
same,MIC Streptococcus agalactiae (GC 4564),Streptococcus sp.; [1],1 µg/mL
same,MIC Streptococcus pneumoniae (ATCC 6301),Streptococcus sp.; [2],0.5 µg/mL
same,MIC Streptococcus pneumoniae (GC 1894),Streptococcus sp.; [3],0.12 µg/mL
same,MIC Streptococcus pneumoniae (GC 4565),Streptococcus sp.; [4],0.25 µg/mL
same,MIC Streptococcus pyogenes (GC 4563),Streptococcus sp.; [5],0.5 µg/mL
same,MIC Streptococcus agalactiae (GC 4564),Streptococcus sp.; [6],1 µg/mL
same,MIC Streptococcus pneumoniae (ATCC 6301),Streptococcus sp.; [6],0.5 µg/mL
same,MIC Streptococcus pneumoniae (GC 1894),Streptococcus sp.; [6],0.12 µg/mL
same,MIC Streptococcus pneumoniae (GC 4565),Streptococcus sp.; [6],0.25 µg/mL
same,MIC Streptococcus pyogenes (GC 4563),Streptococcus sp.; [6],0.5 µg/mL
same,MIC Enterococcus avium (GC 4558),Enterococcus sp.; Enterococcus avium (GC 4558),8 µg/mL
same,MIC Enterococcus faecalis (ATCC 29212),Enterococcus sp.; [7],8 µg/mL
same,MIC Enterococcus faecalis (GC 2242),Enterococcus sp.; [8],4 µg/mL
same,MIC Enterococcus faecalis (GC 2691),Enterococcus sp.; [9],8 µg/mL
same,MIC Enterococcus faecalis (GC 3059),Enterococcus sp.; [10],8 µg/mL
same,MIC Enterococcus faecalis (GC 4552),Enterococcus sp.; [11],8 µg/mL
same,MIC Enterococcus faecalis (GC 4553),Enterococcus sp.; [12],8 µg/mL
same,MIC Enterococcus faecalis (GC 4554),Enterococcus sp.; [13],8 µg/mL
same,MIC Enterococcus faecalis (GC 6189),Enterococcus sp.; [14],8 µg/mL
same,MIC Enterococcus faecium (GC 2243),Enterococcus sp.; Enterococcus faecium (GC 2243),8 µg/mL
same,MIC Enterococcus faecium (GC 4556),Enterococcus sp.; Enterococcus faecium (GC 4556),4 µg/mL
same,MIC Enterococcus faecium (GC 4557),Enterococcus sp.; Enterococcus faecium (GC 4557),4 µg/mL
same,MIC Enterococcus avium (GC 4558),Enterococcus sp.; [6],8 µg/mL
same,MIC Enterococcus faecalis (ATCC 29212),Enterococcus sp.; [6],8 µg/mL
same,MIC Enterococcus faecalis (GC 2242),Enterococcus sp.; [6],4 µg/mL
same,MIC Enterococcus faecalis (GC 2691),Enterococcus sp.; [6],8 µg/mL
same,MIC Enterococcus faecalis (GC 3059),Enterococcus sp.; [6],8 µg/mL
same,MIC Enterococcus faecalis (GC 4552),Enterococcus sp.; [6],8 µg/mL
same,MIC Enterococcus faecalis (GC 4553),Enterococcus sp.; [6],8 µg/mL
same,MIC Enterococcus faecalis (GC 4554),Enterococcus sp.; [6],8 µg/mL
same,MIC Enterococcus faecalis (GC 6189),Enterococcus sp.; [6],8 µg/mL
same,MIC Enterococcus faecium (GC 2243),Enterococcus sp.; [6],8 µg/mL
same,MIC Enterococcus faecium (GC 4556),Enterococcus sp.; [6],4 µg/mL
same,MIC Enterococcus faecium (GC 4557),Enterococcus sp.; [6],4 µg/mL
